Assay results published in US20240391889A1, “ANTIMICROBIAL COMPOUNDS AND THE METHODS OF USE” (priority 2021, published 2024).
Values after ≈ are worked out from the molar mass of the structure shown. Numbered stars: 1 amine (or outer) side, 2 acyl side, 3 side chain; on linkers, the order of the positions; unused ones are H or OH. Square brackets hold non-standard residues; d marks the D form. Peptide text beside a SMILES is read from it. N(tridecyl)Gly = CCCCCCCCCCCCCNCC(=O)O; X1 = CC(c1ccccc1)N(CC(=O)[*:2])[*:1]; NFurfurylGly = O=C(O)CNCc1ccco1; Gly(N(CH2)3NH2) = NCCCNCC(=O)O; Nphe = O=C(O)CNCc1ccccc1; NPrGly = CCCNCC(=O)O; Nlys = NCCCCNCC(=O)O

How the values were obtained:
C. albicans M6 = type: cell-based, Candida albicans; conditions: fluconazole susceptible strain
Text: (§1) This screening led to the discovery of RMG9-11 (FIG. 2C). The minimum inhibitory concentration (MIC) of resynthesized RMG9-11 was initially determined against C. albicans, C. neoformans, and the ESKAPE bacteria via CSLI guidelines (CLSI. Methods for Dilution Antimicrobial Susceptibility Tests for Bacteria That Grow Aerobically, 11th Edition. Clinical and Laboratory Standards Institute (2018); CLSI. Reference method for broth dilution antifungal susceptibility testing of yeasts; approved standard-third edition; CLSI document M27-A3. Clinical and Laboratory Standards Institute (2008)). […] C. albicans clinical isolates include a reference strain (M1), fluconazole susceptible strains (M4 and M6), and fluconazole resistant strains (M2, M3, M5, and M7). ATCC 64124 is multidrug resistant C. albicans strain that is resistant to amphotericin B, fluconazole, caspofungin, and flucytosine. All MICs were performed under CSLI guidelines in triplicate on at least three different days.
(§2) The minimum inhibitory concentration (MIC) of peptoids against fungal pathogens C. albicans and C. neoformans was determined following CLSI guidelines (Reference method for broth dilution antifungal susceptibility testing of yeasts; approved standard-third edition; CLSI document M27-A3.” CLSI. 2008.). Colonies were transferred from a streaked YPD plate to 0.85% saline to reach an OD530 between 0.18 and 0.25. This inoculant was diluted 1:100 into RPMI-MOPS and then further diluted 1:20 into RPMI-MOPS. 198 μL of inoculant was seeded into each well of a 96 well black-walled plate. 2-fold serial dilutions of 100× peptoid solutions were prepared in water and 2 μL of peptoid were added to each well in triplicate. […] MIC was defined as the lowest concentration of compound preventing fungal growth. This assay was repeated 3 times on separate days with each compound.

[1] = tested on: fluconazole resistant and susceptible strains of C. albicans; type: cell-based, Candida albicans; conditions: regardless of fluconazole susceptibility
Text: as §1, §2

C. albicans M2 = type: cell-based, Candida albicans; conditions: fluconazole resistant strain
Text: as §1, §2

C. albicans = type: cell-based, Candida albicans; conditions: planktonic, 24 h, RPMI-MOPS
Text: as §1, §2

C. albicans M5 = type: cell-based, Candida albicans; conditions: fluconazole resistant strain
Text: as §1, §2

C. albicans M7 = type: cell-based, Candida albicans; conditions: fluconazole resistant strain
Text: as §1, §2

C. albicans ATCC 64124 = type: cell-based, Candida albicans; conditions: resistant to amphotericin B, fluconazole, caspofungin, flucytosine
Text: as §1, §2

C. albicans M3 = type: cell-based, Candida albicans; conditions: fluconazole resistant strain
Text: as §1, §2

C. albicans M4 = type: cell-based, Candida albicans; conditions: fluconazole susceptible strain
Text: as §1, §2

C. albicans M1 = type: cell-based, Candida albicans; conditions: reference strain
Text: as §1, §2

C. neoformans = type: cell-based, Cryptococcus neoformans
Text: as §1, §2

C. auris = assay: MIC assay, C. auris; type: cell-based, Candida auris
[2] = tested on: Acinetobacter baumanii ATCC 19606; type: cell-based, Acinetobacter baumannii; conditions: ATCC 19606, 24 h
Text: This screening led to the discovery of RMG9-11 (FIG. 2C). The minimum inhibitory concentration (MIC) of resynthesized RMG9-11 was initially determined against C. albicans, C. neoformans, and the ESKAPE bacteria via CSLI guidelines (CLSI. Methods for Dilution Antimicrobial Susceptibility Tests for Bacteria That Grow Aerobically, 11th Edition. Clinical and Laboratory Standards Institute (2018); CLSI. Reference method for broth dilution antifungal susceptibility testing of yeasts; approved standard-third edition; CLSI document M27-A3. Clinical and Laboratory Standards Institute (2008)). […]
The minimum inhibitory concentration (MIC) of peptoids against the ESKAPE bacteria (Enterococcus faecium ATCC 6569; Staphylococcus aureus ATCC 29213; Klebsiella pneumoniae ATCC 13883; Acinetobacter baumanii ATCC 19606; Pseudomonas aeruginosa ATCC 25619; Enterococcus faecalis ATCC 29212; and Escherichia coli ATCC 25922) was determined following CLSI guidelines (CLSI. Methods for Dilution Antimicrobial Susceptibility Tests for Bacteria That Grow Aerobically, 11th Edition. Clinical and Laboratory Standards Institute, 2018). The MIC against Mycobacterium smegmatis was also determined following CLSI guidelines (Woods, G. L. et al. Susceptibility Testing of Mycobacteria, Nocardiae, and Other Aerobic Actinomycetes, 2nd edition. (2011)). […]

C. krusie = type: cell-based, Candida krusie
C. glabrata = type: cell-based, Candida glabrata
[3] = tested on: Gram-negative and Gram-positive bacteria; type: cell-based; conditions: with the exception of K. pnuemoniae
Text: The ESKAPE bacteria consist of the most common multidrug resistant and nosocomial bacterial pathogens including both Gram-positive and Gram-negative species (Pendleton et al., Expert Rev. Anti-infect. Ther. 11, 297-308 (2013)). […] The broad-spectrum antimicrobial activity of RMG9-11 naturally lead to concerns about mammalian cytotoxicity, especially since the membranes of fungi and mammals have similar phospholipid compositions.
The minimum inhibitory concentration (MIC) of peptoids against the ESKAPE bacteria (Enterococcus faecium ATCC 6569; Staphylococcus aureus ATCC 29213; Klebsiella pneumoniae ATCC 13883; Acinetobacter baumanii ATCC 19606; Pseudomonas aeruginosa ATCC 25619; Enterococcus faecalis ATCC 29212; and Escherichia coli ATCC 25922) was determined following CLSI guidelines (CLSI. Methods for Dilution Antimicrobial Susceptibility Tests for Bacteria That Grow Aerobically, 11th Edition. Clinical and Laboratory Standards Institute, 2018). The MIC against Mycobacterium smegmatis was also determined following CLSI guidelines (Woods, G. L. et al. Susceptibility Testing of Mycobacteria, Nocardiae, and Other Aerobic Actinomycetes, 2nd edition. (2011)). […] Following incubation for the ESKAPE bacteria, PRESTO BLUE (10 μL) was added to each well and incubated at 37° C. for one hour before measuring fluorescence on a SPECTRAMAX M5 plate reader (Ex. 555 nm; Em. 585 nm). […]

CCCCCCCCCCCCCNCC(=O)N(CCC)CC(=O)N(CC(=O)N(CCCCN)CC(=O)N(CC(=O)N(CC(=O)N(CCCN)CC(N)=O)Cc1ccccc1)Cc1ccco1)C(C)c1ccccc1 (centres unmarked) [RMG9-11] (H-[N(tridecyl)Gly][NPrGly][X1][Nlys][NFurfurylGly][Nphe][Gly(N(CH2)3NH2)]-NH2)
MIC C. albicans M6 (C. albicans M6): 6.25 µg/mL (≈ 5.99 µM) | MICs against fluconazole resistant and susceptible strains of C. albicans [1]: 6.25 to 12.5 µg/mL | MIC C. albicans M2 (C. albicans M2): 12.5 µg/mL (≈ 12 µM) | MIC C. albicans (C. albicans): 6.25 µg/mL (≈ 5.99 µM) | MIC C. albicans M5 (C. albicans M5): 12.5 µg/mL (≈ 12 µM) | MIC C. albicans M7 (C. albicans M7): 6.25 µg/mL (≈ 5.99 µM) | MIC C. albicans ATCC 64124 (C. albicans ATCC 64124): 6.25 µg/mL (≈ 5.99 µM) | MIC C. albicans M3 (C. albicans M3): 12.5 µg/mL (≈ 12 µM) | MIC C. albicans M4 (C. albicans M4): 12.5 µg/mL (≈ 12 µM) | MIC C. albicans M1 (C. albicans M1): 6.25 µg/mL (≈ 5.99 µM) | improvement of MIC C. neoformans vs C. albicans (C. neoformans): 2 fold | MIC C. neoformans (C. neoformans; 72 h): 3.13 µg/mL (≈ 3 µM) | MIC C. auris (C. auris): 12.5 µg/mL (≈ 12 µM) | MIC A. baumannii [2]: 12.5 µg/mL (≈ 12 µM) | MIC C. krusie (C. krusie): 3.13 µg/mL (≈ 3 µM) | MIC C. glabrata (C. glabrata): 6.25 µg/mL (≈ 5.99 µM) | activity against Gram-negative and Gram-positive bacteria (MIC) [3]: 3.13 to 12.5 µg/mL
